The NIST ThermoML archive (doi:10.1021/je300873x)
± gives the expanded uncertainty stated by the source.

Experiment: mn = molality of the nth substance listed, in mol/kg
Details: for surface tension liquid-gas: Pendant drop shape; for electrical conductivity: Liquid, Digital conductivity meter

CCCCCCCCCCCC[N+](C)(CCO)CCO.[Br-] [N,N-bis(2-hydroxyethyl)-N-methyldodecan-1-aminium bromide] + O
Details	electrical conductivity [S/m]	surface tension liquid-gas [mN/m]
298.15 K, m1 = 0.00097	–	68.8 ± 0.01
298.15 K, m1 = 0.00193	–	62.75 ± 0.01
298.15 K, m1 = 0.00387	–	54.86 ± 0.01
298.15 K, m1 = 0.0058	–	48.7 ± 0.01
298.15 K, m1 = 0.00773	–	45.46 ± 0.01
298.15 K, m1 = 0.0095	0.0822 ± 0.0001	–
298.15 K, m1 = 0.00967	–	41.58 ± 0.01
298.15 K, m1 = 0.00997	0.0859 ± 0.0001	–
298.15 K, m1 = 0.0105	0.0903 ± 0.0001	–
298.15 K, m1 = 0.01108	0.0948 ± 0.0001	–
298.15 K, m1 = 0.0116	–	39.54 ± 0.01
298.15 K, m1 = 0.01174	0.0998 ± 0.0001	–
298.15 K, m1 = 0.01247	0.1051 ± 0.0001	–
298.15 K, m1 = 0.01257	–	38.9 ± 0.01
298.15 K, m1 = 0.01287	0.1075 ± 0.0001	–
298.15 K, m1 = 0.0133	0.1097 ± 0.0001	–
298.15 K, m1 = 0.01376	0.1114 ± 0.0001	–
298.15 K, m1 = 0.01425	0.1126 ± 0.0001	–
298.15 K, m1 = 0.0145	–	38.74 ± 0.01
298.15 K, m1 = 0.01478	0.1144 ± 0.0001	–
298.15 K, m1 = 0.01535	0.1155 ± 0.0001	–
298.15 K, m1 = 0.01596	0.1171 ± 0.0001	–
298.15 K, m1 = 0.01644	–	38.53 ± 0.01
298.15 K, m1 = 0.01663	0.119 ± 0.0001	–
298.15 K, m1 = 0.01735	0.1209 ± 0.0001	–
298.15 K, m1 = 0.01814	0.1227 ± 0.0001	–
298.15 K, m1 = 0.01901	0.1245 ± 0.0001	–
298.15 K, m1 = 0.01956	–	38.53 ± 0.01
298.15 K, m1 = 0.01996	0.1268 ± 0.0001	–
298.15 K, m1 = 0.0291	–	38.45 ± 0.01
298.15 K, m1 = 0.04849	–	38.36 ± 0.01
303.15 K, m1 = 0.00949	0.091 ± 0.0001	–
303.15 K, m1 = 0.00996	0.0952 ± 0.0001	–
303.15 K, m1 = 0.01049	0.0996 ± 0.0001	–
303.15 K, m1 = 0.01107	0.1049 ± 0.0001	–
303.15 K, m1 = 0.01172	0.1117 ± 0.0001	–
303.15 K, m1 = 0.01245	0.1161 ± 0.0001	–
303.15 K, m1 = 0.01285	0.1192 ± 0.0001	–
303.15 K, m1 = 0.01328	0.1216 ± 0.0001	–
303.15 K, m1 = 0.01374	0.1236 ± 0.0001	–
303.15 K, m1 = 0.01423	0.1258 ± 0.0001	–
303.15 K, m1 = 0.01476	0.127 ± 0.0001	–
303.15 K, m1 = 0.01533	0.1296 ± 0.0001	–
303.15 K, m1 = 0.01594	0.1313 ± 0.0001	–
303.15 K, m1 = 0.01661	0.1328 ± 0.0001	–
303.15 K, m1 = 0.01733	0.1347 ± 0.0001	–
303.15 K, m1 = 0.01812	0.1365 ± 0.0001	–
303.15 K, m1 = 0.01898	0.1386 ± 0.0001	–
303.15 K, m1 = 0.01993	0.141 ± 0.0001	–
308.15 K, m1 = 0.00994	0.1048 ± 0.0001	–
308.15 K, m1 = 0.01047	0.1099 ± 0.0001	–
308.15 K, m1 = 0.01105	0.1157 ± 0.0001	–
308.15 K, m1 = 0.0117	0.1216 ± 0.0001	–
308.15 K, m1 = 0.01243	0.1282 ± 0.0001	–
308.15 K, m1 = 0.01283	0.1315 ± 0.0001	–
308.15 K, m1 = 0.01326	0.1349 ± 0.0001	–
308.15 K, m1 = 0.01372	0.1375 ± 0.0001	–
308.15 K, m1 = 0.01421	0.1402 ± 0.0001	–
308.15 K, m1 = 0.01473	0.1421 ± 0.0001	–
308.15 K, m1 = 0.0153	0.1447 ± 0.0001	–
308.15 K, m1 = 0.01591	0.1463 ± 0.0001	–
308.15 K, m1 = 0.01658	0.1485 ± 0.0001	–
308.15 K, m1 = 0.0173	0.151 ± 0.0001	–
308.15 K, m1 = 0.01809	0.153 ± 0.0001	–
308.15 K, m1 = 0.01895	0.1563 ± 0.0001	–
308.15 K, m1 = 0.0199	0.1591 ± 0.0001	–
313.15 K, m1 = 0.01045	0.1198 ± 0.0001	–
313.15 K, m1 = 0.01103	0.1258 ± 0.0001	–
313.15 K, m1 = 0.01168	0.1323 ± 0.0001	–
313.15 K, m1 = 0.01241	0.14 ± 0.0001	–
313.15 K, m1 = 0.01281	0.1439 ± 0.0001	–
313.15 K, m1 = 0.01324	0.1478 ± 0.0001	–
313.15 K, m1 = 0.01369	0.1515 ± 0.0001	–
313.15 K, m1 = 0.01418	0.155 ± 0.0001	–
313.15 K, m1 = 0.01471	0.1577 ± 0.0001	–
313.15 K, m1 = 0.01527	0.1602 ± 0.0001	–
313.15 K, m1 = 0.01589	0.1631 ± 0.0001	–
313.15 K, m1 = 0.01655	0.1654 ± 0.0001	–
313.15 K, m1 = 0.01727	0.168 ± 0.0001	–
313.15 K, m1 = 0.01805	0.1707 ± 0.0001	–
313.15 K, m1 = 0.01891	0.1726 ± 0.0001	–
318.15 K, m1 = 0.01043	0.1298 ± 0.0001	–
318.15 K, m1 = 0.01101	0.1366 ± 0.0001	–
318.15 K, m1 = 0.01165	0.1438 ± 0.0001	–
318.15 K, m1 = 0.01238	0.1522 ± 0.0001	–
318.15 K, m1 = 0.01278	0.1567 ± 0.0001	–
318.15 K, m1 = 0.01321	0.1612 ± 0.0001	–
318.15 K, m1 = 0.01367	0.166 ± 0.0001	–
318.15 K, m1 = 0.01415	0.1704 ± 0.0001	–
318.15 K, m1 = 0.01468	0.1739 ± 0.0001	–
318.15 K, m1 = 0.01524	0.177 ± 0.0001	–
318.15 K, m1 = 0.01585	0.1806 ± 0.0001	–
318.15 K, m1 = 0.01651	0.1838 ± 0.0001	–
318.15 K, m1 = 0.01723	0.1864 ± 0.0001	–
318.15 K, m1 = 0.01802	0.1895 ± 0.0001	–
318.15 K, m1 = 0.01887	0.1932 ± 0.0001	–
318.15 K, m1 = 0.01983	0.1976 ± 0.0001	–
323.15 K, m1 = 0.0104	0.1411 ± 0.0001	–
323.15 K, m1 = 0.01098	0.1472 ± 0.0001	–
323.15 K, m1 = 0.01163	0.1554 ± 0.0001	–
323.15 K, m1 = 0.01236	0.1644 ± 0.0001	–
323.15 K, m1 = 0.01275	0.169 ± 0.0001	–
323.15 K, m1 = 0.01318	0.1743 ± 0.0001	–
323.15 K, m1 = 0.01363	0.1794 ± 0.0001	–
323.15 K, m1 = 0.01412	0.1851 ± 0.0001	–
323.15 K, m1 = 0.01465	0.1902 ± 0.0001	–
323.15 K, m1 = 0.01521	0.1949 ± 0.0001	–
323.15 K, m1 = 0.01582	0.1998 ± 0.0001	–
323.15 K, m1 = 0.01648	0.2018 ± 0.0001	–
323.15 K, m1 = 0.01719	0.2068 ± 0.0001	–
323.15 K, m1 = 0.01798	0.2118 ± 0.0001	–
323.15 K, m1 = 0.01883	0.2128 ± 0.0001	–
323.15 K, m1 = 0.01977	0.2199 ± 0.0001	–
